Data set [1] is classed as in vivo. The protocol:
Ninety-four critically ill patients admitted to the intensive care unit (ICU) underwent haemofiltration with or without concomitant Flolan (prostacycline) treatment. None of the patients were suffering from Acute Traumatic Coagulopathy nor from sequelae to cardiac arrest. Flolan was administered in a low dose in the filters to prevent these from clotting and consequently there was only a minor spill over of Flolan to the systemic circulation. The patients were retrospectively reviewed.
However, patients in the flolan group were more severely ill as evaluated by a lower platelet count at start of hemofiltration, a higher frequency of severe thrombocytopenia, a higher frequency of DIC diagnoses, a higher maximum SOFA score and a higher SOFA score at hemofiltration initiation as compared to the patients receiving non-flolan.

The subject of another data set is thrombomodulin. Put plainly: Plasma biomarker ELISA after Flolan infusion in healthy volunteers: thrombomodulin. The format is in vivo, human. The conditions noted are these: 4 ng/kg/min intravenously for 2 h, prolonged for several hours after ceasing the infusion. The protocol: (§1) Eight healthy volunteers were administered Flolan® (Prostacyclin) intravenously at a dose of 4 ng/kg/min for 2 h. Blood samples were analyzed for plasma biomarkers indicative of endothelial cell (thrombomodulin, PAI-1) and glycocalyx (syndecan-1) activation and/or damage, cellular necrosis (histone-complexed DNA fragments, HMGB1) and anticoagulation (protein C, antithrombin, TFPI) at the following time points: Before the infusion (Oh), immediately after ceasing the infusion (2 h) and then 4 h, 5 h, 6 h, 8 h and 24 h after starting the infusion. The concentration of the individual biomarkers in plasma was analyzed by commercially available ELISA kits according to the manufactures recommendations. Paired t-tests with p-values <0.05 were considered significant.

The nature of data set [2]: Blood pressure and heart rate during intravenous flolan infusion in healthy volunteers. The format is in vivo, human. The conditions noted are these: 4 ng/kg/min intravenously for 2 h, any time point. The protocol: (§2) Six healthy volunteers were administered flolan (Prostacycline) intravenously at a dose of 4 ng/kg/min for 2 h. Blood samples for whole blood viscoelastical assay (Thrombelastography [TEG]) and whole blood platelet aggregation (Multiplate) were obtained before infusion of Flolan, after 60 min infusion of Flolan and after 120 min infusion of Flolan.

Data set [3] deals with whole blood platelet aggregation. Kind of data set: Whole blood impedance aggregometry (Multiplate) in healthy volunteers infused with flolan. The format is in vivo, human. The conditions noted are these: 6 healthy volunteers, 4 ng/kg/min intravenously, after 60 and 120 min infusion. The protocol:
as §2
Whole blood impedance aggregometry was analyzed by the Multiple Platelet function Analyzer (MultiPlate® analyzer). Analysis employing various platelet agonists: ASPItest (activation by arachidonic acid), COLtest (activation by collagen through the collagen receptor), TRAPtest (activation by TRAP-6 stimulates the thrombin receptor on the platelet surface and ADPtest (activation by ADP stimulates platelet activation by the ADP receptors).
MultiPlate continuously records platelet aggregation. The increase of impedance by the attachment of platelets onto the Multiplate sensors is transformed to arbitrary aggregation units (AU) and plotted against time as depicted in FIG. 2.

The test system of another data set is PAI-1. Put plainly: Plasma biomarker ELISA after Flolan infusion in healthy volunteers: PAI-1. Format: in vivo, human. The conditions noted are these: 4 ng/kg/min intravenously for 2 h. The protocol:
as §1
(ELISA stands for enzyme-linked immunosorbent assay.)

The next data set relates to antithrombin. Kind of data set: Plasma biomarker ELISA after Flolan infusion in healthy volunteers: antithrombin. The format is in vivo, human. The note with it: 4 ng/kg/min intravenously for 2 h. The protocol: as §1
In another data set the test system is Protein C. Put plainly: Plasma biomarker ELISA after Flolan infusion in healthy volunteers: Protein C. Format: in vivo, human. The conditions noted are these: 4 ng/kg/min intravenously for 2 h, in the hours after ceasing the infusion. The protocol: as §1
Data set [4] deals with whole blood haemostatic competence. Kind of data set: Whole blood viscoelastical assay (Thrombelastography, TEG), kaolin activated, in healthy volunteers infused with flolan. The conditions noted are these: 6 healthy volunteers, 4 ng/kg/min intravenously, after 60 and 120 min infusion. Format: in vivo, human. The procedure: Six healthy volunteers were administered flolan (Prostacycline) intravenously at a dose of 4 ng/kg/min for 2 h. Blood samples for whole blood viscoelastical assay (Thrombelastography [TEG]) and whole blood platelet aggregation (Multiplate) were obtained before infusion of Flolan, after 60 min infusion of Flolan and after 120 min infusion of Flolan. With regard to the TEG assay this was performed as recommended by the manufacturer and 340 μl are mixed with 20 μl CaCl 0.2 M (final concentration 11.1 mM in the cup) and kaolin at 37° C. after which the haemostatic activity is recorded as depicted in FIG. 1.

This is an account of results in patent US20130261177A1, “COMPOUNDS CAPABLE OF MODULATING/PRESERVING ENDOTHELIAL INTEGRITY FOR USE IN PREVENTION OR TREATMENT OF ACUTE TRAUMATIC COAGULOPATHY AND RESUSCITATED CARDIAC ARREST” (priority 2010, published 2013).

On to `CCCCC[C@H](O)/C=C/[C@@H]1[C@H]2C/C(=C/CCCC(=O)O)O[C@H]2C[C@H]1O` [Flolan, epoprostenol sodium], for which, in data set [1] (ICU patients, low dose Flolan in the haemofiltration filters, vs. 39% non-flolan, p=0.12), the mortality – broadly, the share of the test organisms that died – at 30 days is given as 21%. Further, the 90 day mortality in data set [1] (ICU patients, low dose Flolan in the haemofiltration filters, vs. 53% non-flolan, p=0.10) was determined as 34%. Besides, the “mortality at 365 days” value in data set [1] (ICU patients, low dose Flolan in the haemofiltration filters, vs. 57% non-flolan, p=0.09) was determined as 38%. Moreover, in data set [1] (human, in vivo), the “Platelet count (difference before vs. after haemofiltration)” value was “+14”; the “haemostatic competence as evaluated by transfusion requirements” value was “does not negatively influence”; the “total transfusion requirements and specifically of FFP during hemofiltration” value was “increased total transfusion requirements”. Further, in the data set with thrombomodulin, the “circulating level of thrombomodulin” value is reported as “marked decrease”. In addition, in data set [2], the “blood pressure, change from baseline” value is listed as “did not change” and the “heart rate, change from baseline” value was “did not change”. The “Multiplate values (agonists ASPI, COL, ADP, TRAP), baseline vs. during infusion” value in data set [3] was “no significant difference”. In addition, in the data set on PAI-1, the “circulating level of PAI-1” value is reported as “declined”. Moreover, the “circulating level of antithrombin” value in the data set with antithrombin was “decreased”. Moreover, in the data set with Protein C, the “circulating level of Protein C” value is given as “decreased”. For the same compound, the “TEG values (R, Angle, MA), baseline vs. during infusion” value in data set [4] is reported as “No significant difference”.
